Experimental data from US8735414B2 (priority 2009, dated 2014).

Tests used:
[1] = system: bicistronic HCV replicon (replicon RNA, GenBank Accession No. AJ242654); experiment: HCV Replicon Assay; type: cell-based; details: Hepatitis C virus, 72 h, read-out: Replicon IC50

## CC(C)n1c(-c2ccc(S(=O)(=O)N[C@@H](C)C(F)(F)F)cn2)c(C(N)=O)c2c(F)cc(OC(F)F)cc21 [compound 839, 6-(difluoromethoxy)-4-fluoro-1-(propan-2-yl)-2-(5-{[(2S)-1,1,1-trifluoropropan-2-yl]sulfamoyl}pyridin-2-yl)-1H-indole-3-carboxamide]
[1]
  IC50: < 500 nM
other
  melting point: 197 to 198 °C

## C[C@H](NS(=O)(=O)c1ccc(-c2c(C(N)=O)c3c(F)cc(OC(F)F)cc3n2CC2CC2)nc1)C(F)(F)F [compound 840, 1-(cyclopropylmethyl)-6-(difluoromethoxy)-4-fluoro-2-(5-{[(2S)-1,1,1-trifluoropropan-2-yl]sulfamoyl}pyridin-2-yl)-1H-indole-3-carboxamide]
[1]
  IC50: < 500 nM
other
  melting point: 211 to 212 °C

## Cc1cc2c(cc1O)c(C(N)=O)c(-c1ccc(S(=O)(=O)N[C@@H](C)C(F)(F)F)cn1)n2C1CCCC1 [compound 841, 1-cyclopentyl-5-hydroxy-6-methyl-2-(5-{[(2S)-1,1,1-trifluoropropan-2-yl]sulfamoyl}pyridin-2-yl)-1H-indole-3-carboxamide]
[1]
  IC50: < 500 nM
other
  melting point: 272 to 274 °C

## Cc1ccc2c(c1)c(C#N)c(-c1ccc(S(=O)(=O)N[C@@H](C)C(F)(F)F)cn1)n2-c1ncccn1 [compound 843, 6-[3-cyano-5-methyl-1-(pyrimidin-2-yl)-1H-indol-2-yl]-N-[(2S)-1,1,1-trifluoropropan-2-yl]pyridine-3-sulfonamide]
[1]
  IC50: < 500 nM
other
  melting point: 174 to 179 °C

## Cc1ccc2c(c1)c(C#N)c(-c1ccc(S(=O)(=O)N[C@@H](C)C(F)(F)F)cn1)n2-c1ncccc1F [compound 844, 6-[3-cyano-1-(3-fluoropyridin-2-yl)-5-methyl-1H-indol-2-yl]-N-[(2S)-1,1,1-trifluoropropan-2-yl]pyridine-3-sulfonamide]
[1]
  IC50: < 500 nM
other
  melting point: 216 to 220 °C

## Cc1ccc2c(c1)c(C#N)c(-c1ccc(S(=O)(=O)N[C@@H](C)C(F)(F)F)cn1)n2-c1cnccn1 [compound 845, 6-[3-cyano-5-methyl-1-(pyrazin-2-yl)-1H-indol-2-yl]-N-[(2S)-1,1,1-trifluoropropan-2-yl]pyridine-3-sulfonamide]
[1]
  IC50: < 500 nM
other
  melting point: 236 to 241 °C

## Cc1cc(-c2c(C#N)c3cc(F)ccc3n2-c2ccccn2)ncc1S(=O)(=O)N[C@@H](C)C(F)(F)F [compound 847, 6-[3-cyano-5-fluoro-1-(pyridin-2-yl)-1H-indol-2-yl]-4-methyl-N-[(2S)-1,1,1-trifluoropropan-2-yl]pyridine-3-sulfonamide]
[1]
  IC50: < 500 nM
other
  melting point: 180 to 186 °C

## Cc1cc(-c2c(C#N)c3cc(F)ccc3n2-c2ncccn2)ncc1S(=O)(=O)N[C@@H](C)C(F)(F)F [compound 848, 6-[3-cyano-5-fluoro-1-(pyrimidin-2-yl)-1H-indol-2-yl]-4-methyl-N-[(2S)-1,1,1-trifluoropropan-2-yl]pyridine-3-sulfonamide]
[1]
  IC50: < 500 nM
other
  melting point: 199 to 204 °C

## CCc1cc2c(cc1F)c(C(N)=O)c(-c1ccc(S(=O)(=O)N[C@@H](C)C(F)(F)F)cn1)n2-c1ncccn1 [compound 849, 6-ethyl-5-fluoro-1-(pyrimidin-2-yl)-2-(5-{[(2S)-1,1,1-trifluoropropan-2-yl]sulfamoyl}pyridin-2-yl)-1H-indole-3-carboxamide]
[1]
  IC50: < 500 nM
other
  melting point: 235 to 236 °C

## CC(C)(NS(=O)(=O)c1ccc(-c2c(C(N)=O)c3cc(F)c(C4CC4)cc3n2C2CCCC2)nc1)C(F)(F)F [compound 850, 1-cyclopentyl-6-cyclopropyl-5-fluoro-2-{5-[(1,1,1-trifluoro-2-methylpropan-2-yl)sulfamoyl]pyridin-2-yl}-1H-indole-3-carboxamide]
[1]
  IC50: < 500 nM
other
  melting point: 236 to 237 °C

## CCc1cc2c(cc1F)c(C#N)c(-c1cc(C)c(S(=O)(=O)N[C@@H](C)C(F)(F)F)cn1)n2-c1ncccn1 [compound 851, 6-[3-cyano-6-ethyl-5-fluoro-1-(pyrimidin-2-yl)-1H-indol-2-yl]-4-methyl-N-[(2S)-1,1,1-trifluoropropan-2-yl]pyridine-3-sulfonamide]
[1]
  IC50: < 500 nM
other
  melting point: 231 to 236 °C

## CCc1cc2c(cc1F)c(C#N)c(-c1cc(C)c(S(=O)(=O)N[C@@H](C)C(F)(F)F)cn1)n2-c1ccccn1 [compound 852, 6-[3-cyano-6-ethyl-5-fluoro-1-(pyridin-2-yl)-1H-indol-2-yl]-4-methyl-N-[(2S)-1,1,1-trifluoropropan-2-yl]pyridine-3-sulfonamide]
[1]
  IC50: < 500 nM
other
  melting point: 178 to 183 °C

## CCc1cc2c(cc1F)c(C#N)c(-c1ccc(S(=O)(=O)NC(C)(C)C)cn1)n2-c1ncccn1 [compound 855, N-tert-butyl-6-[3-cyano-6-ethyl-5-fluoro-1-(pyrimidin-2-yl)-1H-indol-2-yl]pyridine-3-sulfonamide]
[1]
  IC50: < 500 nM
other
  melting point: 208 to 210 °C

## Cc1cc2c(cc1F)c(C(N)=O)c(-c1ccc(S(=O)(=O)NC3(C(F)(F)F)CC3)cn1)n2C1CCCCC1 [compound 857, 1-cyclohexyl-5-fluoro-6-methyl-2-(5-{[1-(trifluoromethyl)cyclopropyl]sulfamoyl}pyridin-2-yl)-1H-indole-3-carboxamide]
[1]
  IC50: < 500 nM
other
  melting point: 273 to 274 °C

## CCc1cc(OC)c2c(C#N)c(-c3ccc(S(=O)(=O)N[C@@H](C)C(F)(F)F)cn3)n(C3CCC3)c2c1 [compound 858, 6-(3-cyano-1-cyclobutyl-6-ethyl-4-methoxy-1H-indol-2-yl)-N-[(2S)-1,1,1-trifluoropropan-2-yl]pyridine-3-sulfonamide]
[1]
  IC50: 500 to 2000 nM
other
  melting point: 187 to 188 °C

## CCc1cc2c(cc1F)c(C#N)c(-c1ccc(S(=O)(=O)NC3(C)CC3)cn1)n2-c1ncccn1 [compound 860, 6-[3-cyano-6-ethyl-5-fluoro-1-(pyrimidin-2-yl)-1H-indol-2-yl]-N-(1-methylcyclopropyl)pyridine-3-sulfonamide]
[1]
  IC50: < 500 nM
other
  melting point: 169 to 179 °C

## CCc1cc2c(cc1F)c(C#N)c(-c1ccc(S(=O)(=O)N(c3ncccn3)C3(C)CC3)cn1)n2-c1ncccn1 [compound 861, 6-[3-cyano-6-ethyl-5-fluoro-1-(pyrimidin-2-yl)-1H-indol-2-yl]-N-(1-methylcyclopropyl)-N-(pyrimidin-2-yl)pyridine-3-sulfonamide]
[1]
  IC50: 2000 to 5000 nM
other
  melting point: 193 to 200 °C

## CC(C)(NS(=O)(=O)c1ccc(-c2c(C(N)=O)c3cc(F)c(OC(F)F)cc3n2C2CCCC2)nc1)C(F)(F)F [compound 863, 1-cyclopentyl-6-(difluoromethoxy)-5-fluoro-2-{5-[(1,1,1-trifluoro-2-methylpropan-2-yl)sulfamoyl]pyridin-2-yl}-1H-indole-3-carboxamide]
[1]
  IC50: < 500 nM
other
  melting point: 215 to 217 °C

## CCc1cc2c(cc1F)c(C#N)c(-c1ncc(S(=O)(=O)N[C@@H](C)C(F)(F)F)cc1C)n2-c1ncccn1 [compound 867, 6-[3-cyano-6-ethyl-5-fluoro-1-(pyrimidin-2-yl)-1H-indol-2-yl]-5-methyl-N-[(2S)-1,1,1-trifluoropropan-2-yl]pyridine-3-sulfonamide]
[1]
  IC50: < 500 nM
other
  melting point: 192 to 198 °C

## Cc1cc2c(cc1F)c(C#N)c(-c1ccc(S(=O)(=O)N[C@@H](C)C(F)(F)F)c(C)n1)n2C1CCCC1 [compound 868, 6-(3-cyano-1-cyclopentyl-5-fluoro-6-methyl-1H-indol-2-yl)-2-methyl-N-[(2S)-1,1,1-trifluoropropan-2-yl]pyridine-3-sulfonamide]
[1]
  IC50: < 500 nM
other
  melting point: 206 to 211 °C

## CCc1cc2c(cc1F)c(S(C)(=O)=O)c(-c1ccc(S(=O)(=O)NC(C)(C)C)cn1)n2-c1ncccn1 [compound 869, N-tert-butyl-6-(6-ethyl-5-fluoro-3-(methylsulfonyl)-1-(pyrimidin-2-yl)-1H-indol-2-yl)pyridine-3-sulfonamide]
[1]
  IC50: 500 to 2000 nM
other
  melting point: 244 to 248 °C

## CCc1cc2c(cc1F)c(C#N)c(-c1ncc(S(=O)(=O)N[C@@H](C)C(F)(F)F)cc1C)n2-c1ccccn1 [compound 870, 6-[3-cyano-6-ethyl-5-fluoro-1-(pyridin-2-yl)-1H-indol-2-yl]-5-methyl-N-[(2S)-1,1,1-trifluoropropan-2-yl]pyridine-3-sulfonamide]
[1]
  IC50: < 500 nM
other
  melting point: 195 to 198 °C

## CCc1cc2c(cc1F)c(C(N)=O)c(-c1ccc(S(=O)(=O)NC(C)(C)C(F)(F)F)cn1)n2C1CCCC1 [compound 871, 1-cyclopentyl-6-ethyl-5-fluoro-2-{5-[(1,1,1-trifluoro-2-methylpropan-2-yl)sulfamoyl]pyridin-2-yl}-1H-indole-3-carboxamide]
[1]
  IC50: < 500 nM
other
  melting point: 185 to 188 °C

## CCc1cc2c(cc1F)c(C(N)=O)c(-c1ccc(S(=O)(=O)NC3(C(F)(F)F)CC3)cn1)n2C1CCCC1 [compound 872, 1-cyclopentyl-6-ethyl-5-fluoro-2-(5-{[1-(trifluoromethyl)cyclopropyl]sulfamoyl}pyridin-2-yl)-1H-indole-3-carboxamide]
[1]
  IC50: < 500 nM
other
  melting point: 196 to 197 °C

## Cc1cc2c(cc1F)c(C(N)=O)c(-c1ccc(S(=O)(=O)N[C@@H](C)C(F)(F)F)cn1)n2-c1ccccn1 [compound 874, 5-fluoro-6-methyl-1-(pyridin-2-yl)-2-(5-{[(2S)-1,1,1-trifluoropropan-2-yl]sulfamoyl}pyridin-2-yl)-1H-indole-3-carboxamide]
[1]
  IC50: < 500 nM
other
  melting point: 142 to 148 °C

## Cc1cc2c(cc1F)c(C(N)=O)c(-c1ccc(S(=O)(=O)N[C@@H](C)C(F)(F)F)cn1)n2-c1cnccn1 [compound 875, 5-fluoro-6-methyl-1-(pyrazin-2-yl)-2-(5-{[(2S)-1,1,1-trifluoropropan-2-yl]sulfamoyl}pyridin-2-yl)-1H-indole-3-carboxamide]
[1]
  IC50: < 500 nM
other
  melting point: 162 to 169 °C
